Data on ten molecules can be found in PubChem BioAssay (NCI).

Holding throughout (test): NCI-60 cell line screen, 48 h
For test [1], the system named is A549 NSCLC.
Test [2] relates to ACHN renal.
Test [3] concerns COLO 205 colon.
Test [4] concerns KM12 colon.
Test [5] concerns LOX IMVI melanoma.
For test [6], the system named is MCF7 breast.
The subject of test [7] is MDA-MB-231 breast.
In test [8] the test system is NCI-H460 lung.
The test system of test [9] is OVCAR-5 ovarian.
Test [10] deals with SNB-19 CNS.

“And” between values parts separate entries of the source, which are not always exact repeats. Equal entries are not always repeated.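 Where inhibition never reached the appropriate level, the endpoint shown equals the highest concentration tested. Otherwise, values were interpolated linearly from a five-concentration, 48-hour dose response in 96-well plates. GI50: concentration for 50% inhibition of growth. TGI: total growth inhibition.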 Bounds are passed on as bounds.

As for `O=C(NC[C@H](O)CO)c1ccncc1Nc1ccc(I)cc1F`, the GI50 in [1] was 0.694 µM and 1.79 µM; in [2], > 2.47 µM and 6.98 µM; in test [3], 0.00323 µM and < 0.01 µM; in test [4] it was 0.111 µM and 0.154 µM; in test [6], > 10 µM and 15.5 µM; in [7] it was 0.154 µM and 0.348 µM. In addition, the GI50 in [8] was > 10 µM and 11.8 µM; in test [9], 0.0104 µM and 0.0151 µM; in test [10], > 10 µM and 21.2 µM. The TGI was more than 75.8 µM in test [1]; more than 100 µM in test [2]; more than 100 µM in test [3]; more than 100 µM in [4]; > 10 µM and 22.4 µM in [5]; more than 100 µM in test [6]. Further, the TGI in test [7] was > 10 µM and 46.7 µM; in test [8], more than 100 µM; in [9] it was more than 100 µM; in test [10], more than 100 µM.
Turning to `O=C(/C=C/c1ccc([N+](=O)[O-])cc1)c1ccc2c3c(cccc13)CC2`, the GI50 in test [1] was 10.3 µM; in test [2] it was 47.9 µM; in test [3], 4.98 µM; in [4], 3.1 µM; in test [5], 4.26 µM; in [6], 2.7 µM. For the same molecule, the GI50 in test [7] was more than 52.8 µM; in test [8], 4.23 µM; in [9], more than 64.2 µM; in [10], 3.36 µM. In addition, the TGI in [1] was more than 100 µM; in test [2] it was more than 100 µM; in test [3], more than 25.4 µM; in [4], 14.2 µM; in test [5] it was 17.6 µM; in [6] it was more than 25.4 µM. For the same molecule, the TGI in test [7] is more than 100 µM; in test [8] it was more than 64.8 µM; in test [9], more than 100 µM; in [10], 17.4 µM.
Take `CC1(C)CC(C)(C)C1=NNC(N)=O`: the TGI in test [1], in test [2], in test [3], in test [4], in test [5] and in test [6] was more than 100 µM each time. The TGI in test [7], in test [8], in [9] and in [10] was more than 100 µM each time.
For `CC1=C(CO)C(=O)O[C@@H]([C@@H](C)[C@H]2CC[C@H]3[C@@H]4C[C@@H](O)[C@@]5(O)CC=CC(=O)[C@]5(C)[C@H]4CC[C@]23C)C1`, the TGI in test [1] is more than 100 µM; in test [2], 75.2 µM; in test [3] it was more than 100 µM; in [4] it was 58.8 µM; in test [5] it was more than 100 µM; in test [6], more than 100 µM. For the same molecule, the TGI was more than 100 µM in test [7], 38.3 µM in test [8], more than 100 µM in test [9] and more than 100 µM in [10].
With `N#Cc1c(-c2ccc(Cl)cc2)c2c(n(C3OC(CO)C(O)C(O)C3O)c1=S)CCC2` (stereo unspecified), the TGI in test [1] was more than 100 µM; in test [2], more than 100 µM; in test [3], 63.8 µM; in test [4], more than 100 µM; in test [5], 34.3 µM; in test [6], 40.9 µM. Besides, the TGI was more than 100 µM in test [7], more than 100 µM in test [8], more than 100 µM in [9] and 71 µM in test [10].
Take `CC1(C)C2C=CC1(C)C1(CC2)OCCO1` (stereo unspecified): the TGI in test [2], in [3], in test [4], in test [5], in test [6] and in test [7] was more than 100 µM each time. Moreover, the TGI in [8], in [9] and in [10] was more than 100 µM each time.
Turning to `C1CN(SSN2CCOCC2)CCO1`, the GI50 in test [1] was 78.6 µM; in test [2], 81 µM; in [3], 25 µM; in [4] it was 43.6 µM; in test [6], 23.3 µM; in test [7], 92.8 µM. The GI50 in test [8] is 28.3 µM; in [9] it was 39 µM; in [10], more than 100 µM. Besides, the TGI in [1] is more than 100 µM; in test [2] it was more than 100 µM; in test [3] it was 64 µM; in [4], more than 100 µM; in test [6], 64.4 µM; in test [7], more than 100 µM. Besides, the TGI in [8], in test [9] and in [10] was more than 100 µM throughout.
Turning to `NC(=O)c1c(NC(=O)c2ccc3c(c2)OCO3)sc2c1CCC(=O)C2`, the GI50 is 3.44 µM in [1]; 1.51 µM in test [2]; 2.49 µM in test [3]; 1.15 µM in test [5]; 1.96 µM in test [6]; 2.44 µM in test [7]. Moreover, the GI50 in test [10] is 2.17 µM. In addition, the TGI is more than 100 µM in [1]; 5.11 µM in test [2]; 7.42 µM in test [3]; more than 100 µM in [5]; more than 100 µM in [6]; 6.89 µM in test [7]. In addition, in test [10], the TGI was more than 100 µM.
For the molecule `Cc1ccc(CNc2c3ccccc3nc3cc(NC(=O)CCN4CCCC4)ccc23)cc1`, the GI50 was 0.541 µM in [2]; 0.408 µM in test [3]; 0.534 µM in test [4]; 0.515 µM in test [5]; 0.453 µM in test [6]; 0.602 µM in [7]. The values for the GI50 in test [8], in [9] and in test [10] were 0.365 µM, 0.793 µM and 0.624 µM, respectively. Moreover, the TGI in test [2] was found to be 1.74 µM; in [3], 1.62 µM; in test [4] it was 1.79 µM; in test [5], 1.76 µM; in test [6], 1.77 µM; in [7], 1.98 µM. Moreover, the TGI in [8] was 1.25 µM; in test [9] it was 2.1 µM; in test [10], 1.92 µM.
In the case of `NC(=S)N/N=C/c1ncccc1N`, the GI50 is 3.16 µM in [1]; 2.54 µM in test [3]; 5.38 µM in test [4]; 0.439 µM in [5]; 0.32 µM in [6]; 3.79 µM in test [7]. The GI50 in test [8] was 0.654 µM; in test [9], 5.98 µM; in test [10], 1.78 µM. The TGI in test [1] was more than 100 µM; in test [3] it was 12.1 µM and > 10 µM; in [4] it was more than 100 µM; in test [5], 8.25 µM and > 10 µM; in test [6] it was 27.2 µM and > 10 µM; in [7], more than 100 µM. The TGI in test [8] is 12.6 µM and > 10 µM; in [9] it was more than 100 µM; in [10], more than 84.9 µM.
